Results from US10519140B2, “Indolin-2-one derivatives” (Hoffmann-La Roche Inc., priority 2015, dated 2019).
pIC50: −log10 of the molar value.

What was measured:
mice = assay: SmartCube behavioral signature similarity analysis; assay type: in vivo; conditions: for discrimination rate vs Clozapine (1.0 mg/kg) / discrimination rate vs Olanzapine (0.25 mg/kg) / discrimination rate vs Risperidone (0.06 mg/kg): rate of 0.70 or lower = similar; for SmartCube behavioral signature class: i.p.
Description: In addition to the reversal of L-687,414 induced hyperlocomotion experiment as described above, some compounds of the present invention have been tested in SmartCube®, an automated system in which the behaviors of compound-treated mice in response to multiple challenges are captured by digital video and analyzed with computer algorithms (Roberds et al., Frontiers in Neuroscience, 2011, Vol. 5, Art. 103, 1-4; Vadim Alexandrov, Dani Brunner, Taleen Hanania, Emer Leahy Eur. J Pharmacol. 2015, 750, 82-99). In this way, the neuro-pharmacological effects of a test compound can be predicted by similarity to major classes of compounds, such as antipsychotics, anxiolytics and antidepressants. […] In addition to the above-mentioned experiments, it has been shown that some of the compounds of formula I are also ENT1 inhibitors (equilibrative nucleoside transporter 1 protein). Therapeutic potential of ENT1 inhibitors is directly or indirectly (via effects of adenosine and/or adenosine receptor modulation) described in the literature for the treatment of the following diseases: autoimmune disease (US 2006/253263), cancer (WO9857643), viral infections and fungal infections (WO2004060902), neurodegenerative disease, Parkinson's disease, Alzheimer's disease, Huntington's disease, amyotrophic lateral sclerosis, psychiatric diseases, substance abuse, ADHD, depression, epilepsy, anxiety, schizophrenia (WO0168105, EP 1252910, EP1612210, WO2009018275), autism spectrum disorders (Susan A. Masinoa, Masahito Kawamura Jr., Jessica L. Cotea, Rebecca B. Williams, David N. Ruskina, Neuropharmacology, 2013, 68, 116-121, pain (WO2009062990, WO2009064497), inflammation, asthma, (US 2007213296, Inflammation research, 2011, 60, 75-76), cardiovascular diseases (Trends in Pharmacological science, 2006, 27, 416-425), sleep disorders, (Psychopharmacology, 1987, 91, 434-439), and ophthalmology and inflammatory retinal diseases (World Journal of Diabetes, vol. 1, 12-18), epilepsy and neurodevelopmental disorders with co-morbid epilepsy (ENT1 Inhibition Attenuates Epileptic Seizure Severity Via Regulation of Glutamatergic Neurotransmission, Xu et al, Neuromol Med (2015) 17:1-11 and Epigenetic changes induced by adenosine augmentation therapy prevent epileptogenesis, Williams-Karneshy et al J Clin Invest. 2013 August; 123(8):3552-63.
As mentioned above, some compounds have been tested in SmartCube®, an analytical system developed by PsychoGenics Inc.
SmartCube® was used to compare the behavioral signature of a test compound to a database of behavioral signatures obtained from a large set of clinically approved reference drugs, grouped per indications. In this way, the neuro-pharmacological effects of a test compound can be predicted by similarity to major classes of compounds, such as antipsychotics, anxiolytics and antidepressants. This approach is ideally suited to screen collections of existing drugs or drug candidates with previously unknown neuropharmacology, which could expedite the development of new and unexpected treatments for psychiatric disorders.
Some compounds of the present invention were injected i.p. at different doses 15 minutes before the test. At least 8 mice were used in each treatment group. Digital videos of the subjects were processed with computer vision algorithms to extract over 2000 dependent measures including frequency and duration of many different behavioral states. The results of the classifications are presented as bar charts for each compound and dose (mg/kg), the Y-axis indicates the relative probability that the test compound will show efficacy in the specific CNS indication.
Compounds of the present invention show similar signatures to those of atypical antipsychotics. An independent analysis was performed on the unclassified data to determine the similarity of the example compounds to active doses of known atypical antipsychotics. […]

mouse ENT-1 transporter = target: T1, mouse ENT-1 transporter (Mus musculus, UniProt Q9JIM1); assay: Adenosine transport activity (ENT1, [3H]-adenosine uptake inhibition); assay type: cell-based; conditions: stable cells expressing mouse ENT-1; [2,8-3H]-adenosine 6 nM, 20 min
T1 construct: expressed in transfected cells
T1 sequence (Q9JIM1 1-460): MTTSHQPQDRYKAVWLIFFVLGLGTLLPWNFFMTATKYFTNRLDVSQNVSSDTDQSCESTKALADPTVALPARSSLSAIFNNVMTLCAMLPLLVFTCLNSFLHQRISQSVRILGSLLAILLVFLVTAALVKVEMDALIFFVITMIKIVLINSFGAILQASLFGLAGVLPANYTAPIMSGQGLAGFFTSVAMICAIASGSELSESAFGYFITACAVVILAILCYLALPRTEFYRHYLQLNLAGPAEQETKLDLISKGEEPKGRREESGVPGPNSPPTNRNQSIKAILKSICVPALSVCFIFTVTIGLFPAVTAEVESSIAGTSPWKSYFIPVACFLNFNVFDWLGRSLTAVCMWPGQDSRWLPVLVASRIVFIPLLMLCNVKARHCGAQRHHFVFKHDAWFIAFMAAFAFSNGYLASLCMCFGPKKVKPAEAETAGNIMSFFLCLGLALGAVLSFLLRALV
Protocol: To measure adenosine transport activity of ENT-1 mammalian cells, stable cells expressing the mouse ENT-1 transporter were plated on day 1 in 96-well culture plates at the density of 60,000 cells/well, in complete DMEM/F12 medium supplemented with glutamax, 10% FBS and 10 μg/ml puromycin. On day 2, the medium was aspirated and the cells were washed twice with uptake buffer (10 mM Hepes-Tris, pH 7.4 containing 150 mM NaCl, 1 mM CaCl2, 2.5 mM KCl, 2.5 mM MgSO4, 10 mM D-glucose) (UB). For inhibition experiments, cells were then incubated at RT with various concentrations of compounds with 1% DMSO final. Non-specific uptake was defined in the presence of 10 μM S-(4-Nitrobenzyl)-6-thioinosine (NBTI, Sigma Cat #N2255). A solution containing [2,8-^3H]-adenosine 6 nM (40 Ci/mmol, American Radiolabeled chemicals Inc, Cat #ART 0287A) was then immediately added to the wells. The plates were then incubated for 20 min with gentle shaking and the reaction was stopped by aspiration of the mixture and washing (three times) with ice-cold UB. The cells were lysed by the addition of scintillation liquid, shaken 3 hours and the radioactivity in the cells was estimated using a microplates scintillation counter (TopCount NXT, Packard).

## Cc1ncc(-c2ccc3c(c2)N(c2cncc(N4CCOCC4)n2)C(=O)C3(C)C)cn1 [Example 1, 3,3-Dimethyl-6-(2-methylpyrimidin-5-yl)-1-(6-morpholinopyrazin-2-yl)indolin-2-one]
mice; example at 3 mg/kg i.p.
  discrimination rate vs Clozapine (1.0 mg/kg): 0.56
  discrimination rate vs Olanzapine (0.25 mg/kg): 0.59
  discrimination rate vs Risperidone (0.06 mg/kg): 0.83
mice
  SmartCube behavioral signature class: similarity to atypical antipsychotics
Mouse ENT-1 transporter
  pIC50: 7.41

## Cc1ncc(-c2ccc3c(c2)N(c2cncc(N4CCCC4=O)n2)C(=O)C3(C)C)cn1 [Example 3, 3,3-Dimethyl-6-(2-methylpyrimidin-5-yl)-1-(6-(2-oxopyrrolidin-1-yl)pyrazin-2-yl)indolin-2-one]
mice; example at 5 mg/kg i.p.
  discrimination rate vs Clozapine (1.0 mg/kg): 0.62
  discrimination rate vs Olanzapine (0.25 mg/kg): 0.66
  discrimination rate vs Risperidone (0.06 mg/kg): 0.68
mice
  SmartCube behavioral signature class: similarity to atypical antipsychotics
Mouse ENT-1 transporter
  pIC50: 7.24

## Cc1ncc(-c2ccc3c(c2)N(c2cncc(N4CCOC4=O)n2)C(=O)C3(C)C)cn1 [Example 15, 3-(6-(3,3-Dimethyl-6-(2-methylpyrimidin-5-yl)-2-oxoindolin-1-yl)pyrazin-2-yl)oxazolidin-2-one]
mice; example at 3 mg/kg i.p.
  discrimination rate vs Clozapine (1.0 mg/kg): 0.57
  discrimination rate vs Olanzapine (0.25 mg/kg): 0.56
  discrimination rate vs Risperidone (0.06 mg/kg): 0.59
mice
  SmartCube behavioral signature class: similarity to atypical antipsychotics
Mouse ENT-1 transporter
  pIC50: 7.59

## Cc1ncc(-c2ccc3c(c2)N(c2cnc(C)c(N4CCOCC4)n2)C(=O)C3(C)C)cn1 [Example 18, 3,3-Dimethyl-1-(5-methyl-6-morpholinopyrazin-2-yl)-6-(2-methylpyrimidin-5-yl)indolin-2-one]
mice; example at 3 mg/kg i.p.
  discrimination rate vs Clozapine (1.0 mg/kg): 0.61
  discrimination rate vs Olanzapine (0.25 mg/kg): 0.62
  discrimination rate vs Risperidone (0.06 mg/kg): 0.73
mice
  SmartCube behavioral signature class: similarity to atypical antipsychotics
Mouse ENT-1 transporter
  pIC50: 7.01

## Cc1ncc(-c2ccc3c(c2)N(c2cnc(C)c(N4CCOC4=O)n2)C(=O)C3(C)C)cn1 [Example 20, 3-(6-(3,3-Dimethyl-6-(2-methylpyrimidin-5-yl)-2-oxoindolin-1-yl)-3-methylpyrazin-2-yl)oxazolidin-2-one]
mice; example at 3 mg/kg i.p.
  discrimination rate vs Clozapine (1.0 mg/kg): 0.53
  discrimination rate vs Olanzapine (0.25 mg/kg): 0.51
  discrimination rate vs Risperidone (0.06 mg/kg): 0.57
mice
  SmartCube behavioral signature class: similarity to atypical antipsychotics
Mouse ENT-1 transporter
  pIC50: 7.78

## Cc1ncc(-c2ccc3c(c2)N(c2ccc4c(n2)N(C)C(=O)C4(C)C)C(=O)C3(C)C)cn1 [Example 39, 6-(3,3-Dimethyl-6-(2-methylpyrimidin-5-yl)-2-oxoindolin-1-yl)-1,3,3-trimethyl-1H-pyrrolo[2,3-b]pyridin-2(3H)-one]
mice; example at 3 mg/kg i.p.
  discrimination rate vs Clozapine (1.0 mg/kg): 0.59
  discrimination rate vs Olanzapine (0.25 mg/kg): 0.58
  discrimination rate vs Risperidone (0.06 mg/kg): 0.62
mice
  SmartCube behavioral signature class: similarity to atypical antipsychotics
Mouse ENT-1 transporter
  pIC50: 7.57

## Cc1ncc(-c2ccc3c(c2)N(c2cnc(-n4ccnc4C)cn2)C(=O)C3(C)C)cn1 [Example 50, 3,3-Dimethyl-1-(5-(2-methyl-1H-imidazol-1-yl)pyrazin-2-yl)-6-(2-methylpyrimidin-5-yl)indolin-2-one]
mice; example at 3 mg/kg i.p.
  discrimination rate vs Clozapine (1.0 mg/kg): 0.52
  discrimination rate vs Olanzapine (0.25 mg/kg): 0.51
  discrimination rate vs Risperidone (0.06 mg/kg): 0.63
mice
  SmartCube behavioral signature class: similarity to atypical antipsychotics
Mouse ENT-1 transporter
  pIC50: 7.51

## Cc1ncc(-c2ccc3c(c2)N(c2cnc4c(c2)C(C)(C)C(=O)N4C)C(=O)C3(C)C)cn1 [Example 54, 5-(3,3-Dimethyl-6-(2-methylpyrimidin-5-yl)-2-oxoindolin-1-yl)-1,3,3-trimethyl-1H-pyrrolo[2,3-b]pyridin-2(3H)-one]
mice; example at 3 mg/kg i.p.
  discrimination rate vs Clozapine (1.0 mg/kg): 0.54
  discrimination rate vs Olanzapine (0.25 mg/kg): 0.51
  discrimination rate vs Risperidone (0.06 mg/kg): 0.57
mice
  SmartCube behavioral signature class: similarity to atypical antipsychotics
Mouse ENT-1 transporter
  pIC50: 7.62
